Patent US11965039B2, “Compstatin analogues and their medical uses” (priority 2018, dated 2024)
Positions of bridges follow the written chain, without caps; N, C: chain ends. Non-standard residues stand in square brackets, D forms with d. Residues, ends and D or L forms follow the SMILES beside them. Trp(1-Me) = Cn1cc(C[C@H](N)C(=O)O)c2ccccc21; Sar = CNCC(=O)O

Tests used:
[1] = Solubility test at 10 mg/mL (visual inspection and light scattering); type: physicochemical; conditions: for Solubility, Condition 1: Acetate pH 4; for Solubility, Condition 2: Acetate pH 5; for Solubility, Condition 3: Phosphate pH 6; for Solubility, Condition 4: Phosphate pH 7; for Solubility, Condition 5: Phosphate pH 7.5
[2] = test system: classical complement pathway; experiment: In vitro haemolysis assay (inhibition of classical complement pathway); type: cell-based, human; conditions: human serum, sensitized sheep red blood cells; Table 3, given as upper bounds; read-out: IC50, inhibition of hemolysis
In short: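 Compound dilutions preincubated 15 min at room temperature with diluted human serum (titrated per batch for 70-90% maximal haemolysis), then antibody-sensitized sheep RBC (10^7/well) added for 30 min at 37 °C in Tris/casein buffer, pH 7.4. Stopped with EDTA; haemolysis read at 405 nm; IC50 by 4PL fit.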

| SMILES | Solubility, Condition 1 [1] | Solubility, Condition 2 [1] | Solubility, Condition 3 [1] | Solubility, Condition 4 [1] | Solubility, Condition 5 [1] | IC50 [2] |
| --- | --- | --- | --- | --- | --- | --- |
| CC[C@H](C)[C@@H]1NC(=O)[C@@H](NC(=O)[C@H](Cc2ccccc2)NC(=O)[C@H](CCC(=O)O)NC(=O)[C@H](CO)NC(C)=O)CSSC[C@@H](C(=O)N(C)CC(=O)N[C@@H](CCC(=O)O)C(N)=O)NC(=O)[C@H](CCCNC(=N)N)NC(=O)[C@H](Cc2c[nH]cn2)NC(=O)[C@H](CCC(=O)O)NC(=O)CNC(=O)[C@H](Cc2c[nH]c3ccccc23)NC(=O)[C@H](CC(=O)O)NC(=O)[C@H](CCC(N)=O)NC(=O)[C@H](Cc2cn(C)c3ccccc23)NC1=O [Compound 78] (Ac-SEFCI[Trp(1-Me)]QDWGEHRC[Sar]E-NH2; disulfide 4-14) | − (“−” denotes lack of solubility at the given condition, as UV absorbance at 340 nm exceeds 0.1 AU and/or it is visibly turbid or contains particles) | − (“−” denotes lack of solubility at the given condition, as UV absorbance at 340 nm exceeds 0.1 AU and/or it is visibly turbid or contains particles) | + (“+” denotes solubility at the given condition, as determined by UV absorbance being less than 0.1 AU at 340 nm and the sample being clear when manually inspected) | + (“+” denotes solubility at the given condition, as determined by UV absorbance being less than 0.1 AU at 340 nm and the sample being clear when manually inspected) | + (“+” denotes solubility at the given condition, as determined by UV absorbance being less than 0.1 AU at 340 nm and the sample being clear when manually inspected) | < 100 nM |
| CC[C@H](C)[C@@H]1NC(=O)[C@@H](NC(=O)[C@H](Cc2ccccc2)NC(=O)[C@H](C)NC(=O)[C@H](CO)NC(=O)CNC(=O)[C@H](CCC(=O)O)NC(C)=O)CSSC[C@@H](C(=O)N(C)CC(=O)N[C@@H](CCC(=O)O)C(N)=O)NC(=O)[C@H](CCCNC(=N)N)NC(=O)[C@H](Cc2c[nH]cn2)NC(=O)[C@H](CCC(=O)O)NC(=O)CNC(=O)[C@H](Cc2c[nH]c3ccccc23)NC(=O)[C@H](CC(=O)O)NC(=O)[C@H](CCC(N)=O)NC(=O)[C@H](Cc2c[nH]c3ccccc23)NC1=O [Compound 45] (Ac-EGSAFCIWQDWGEHRC[Sar]E-NH2; disulfide 6-16) | − (“−” denotes lack of solubility at the given condition, as UV absorbance at 340 nm exceeds 0.1 AU and/or it is visibly turbid or contains particles) | + (“+” denotes solubility at the given condition, as determined by UV absorbance being less than 0.1 AU at 340 nm and the sample being clear when manually inspected) | + (“+” denotes solubility at the given condition, as determined by UV absorbance being less than 0.1 AU at 340 nm and the sample being clear when manually inspected) | + (“+” denotes solubility at the given condition, as determined by UV absorbance being less than 0.1 AU at 340 nm and the sample being clear when manually inspected) | + (“+” denotes solubility at the given condition, as determined by UV absorbance being less than 0.1 AU at 340 nm and the sample being clear when manually inspected) | < 100 nM |
| CC[C@H](C)[C@@H]1NC(=O)[C@@H](NC(=O)[C@H](Cc2ccccc2)NC(=O)[C@H](C)NC(=O)[C@H](CO)NC(=O)CNC(=O)[C@H](CCC(=O)O)NC(C)=O)CSSC[C@@H](C(=O)N[C@H](C(=O)N[C@@H](CCC(=O)O)C(N)=O)[C@@H](C)O)NC(=O)[C@H](CCCNC(=N)N)NC(=O)[C@H](Cc2c[nH]cn2)NC(=O)[C@H](CCC(=O)O)NC(=O)CNC(=O)[C@H](Cc2c[nH]c3ccccc23)NC(=O)[C@H](CC(=O)O)NC(=O)[C@H](CCC(N)=O)NC(=O)[C@H](Cc2cn(C)c3ccccc23)NC1=O [Compound 57] (Ac-EGSAFCI[Trp(1-Me)]QDWGEHRCTE-NH2; disulfide 6-16) | − (“−” denotes lack of solubility at the given condition, as UV absorbance at 340 nm exceeds 0.1 AU and/or it is visibly turbid or contains particles) | − (“−” denotes lack of solubility at the given condition, as UV absorbance at 340 nm exceeds 0.1 AU and/or it is visibly turbid or contains particles) | + (“+” denotes solubility at the given condition, as determined by UV absorbance being less than 0.1 AU at 340 nm and the sample being clear when manually inspected) | + (“+” denotes solubility at the given condition, as determined by UV absorbance being less than 0.1 AU at 340 nm and the sample being clear when manually inspected) | + (“+” denotes solubility at the given condition, as determined by UV absorbance being less than 0.1 AU at 340 nm and the sample being clear when manually inspected) | < 100 nM |
| CC[C@H](C)[C@@H]1NC(=O)[C@@H](NC(=O)[C@H](Cc2ccc(O)cc2)NC(C)=O)CSSC[C@@H](C(=O)N[C@H](C(=O)N[C@@H](CCC(=O)O)C(=O)N[C@@H](C)C(=O)NCC(=O)N[C@@H](CO)C(N)=O)[C@@H](C)O)NC(=O)[C@H](CCCNC(=N)N)NC(=O)[C@H](Cc2c[nH]cn2)NC(=O)[C@H](CCC(=O)O)NC(=O)CNC(=O)[C@H](Cc2c[nH]c3ccccc23)NC(=O)[C@H](CC(=O)O)NC(=O)[C@H](CCC(N)=O)NC(=O)[C@H](Cc2cn(C)c3ccccc23)NC1=O [Compound 68] (Ac-YCI[Trp(1-Me)]QDWGEHRCTEAGS-NH2; disulfide 2-12) | − (“−” denotes lack of solubility at the given condition, as UV absorbance at 340 nm exceeds 0.1 AU and/or it is visibly turbid or contains particles) | − (“−” denotes lack of solubility at the given condition, as UV absorbance at 340 nm exceeds 0.1 AU and/or it is visibly turbid or contains particles) | + (“+” denotes solubility at the given condition, as determined by UV absorbance being less than 0.1 AU at 340 nm and the sample being clear when manually inspected) | + (“+” denotes solubility at the given condition, as determined by UV absorbance being less than 0.1 AU at 340 nm and the sample being clear when manually inspected) | + (“+” denotes solubility at the given condition, as determined by UV absorbance being less than 0.1 AU at 340 nm and the sample being clear when manually inspected) | < 100 nM |
| CC[C@H](C)[C@@H]1NC(=O)[C@@H](NC(=O)[C@H](Cc2ccccc2)NC(=O)[C@H](CCC(=O)O)NC(C)=O)CSSC[C@@H](C(=O)N(C)CC(=O)N[C@@H](CCC(=O)O)C(=O)N[C@@H](C)C(N)=O)NC(=O)[C@H](CCCNC(=N)N)NC(=O)[C@H](Cc2c[nH]cn2)NC(=O)[C@H](CCC(=O)O)NC(=O)CNC(=O)[C@H](Cc2c[nH]c3ccccc23)NC(=O)[C@H](CC(=O)O)NC(=O)[C@H](CCC(N)=O)NC(=O)[C@H](Cc2cn(C)c3ccccc23)NC1=O [Compound 80] (Ac-EFCI[Trp(1-Me)]QDWGEHRC[Sar]EA-NH2; disulfide 3-13) | − (“−” denotes lack of solubility at the given condition, as UV absorbance at 340 nm exceeds 0.1 AU and/or it is visibly turbid or contains particles) | − (“−” denotes lack of solubility at the given condition, as UV absorbance at 340 nm exceeds 0.1 AU and/or it is visibly turbid or contains particles) | + (“+” denotes solubility at the given condition, as determined by UV absorbance being less than 0.1 AU at 340 nm and the sample being clear when manually inspected) | + (“+” denotes solubility at the given condition, as determined by UV absorbance being less than 0.1 AU at 340 nm and the sample being clear when manually inspected) | + (“+” denotes solubility at the given condition, as determined by UV absorbance being less than 0.1 AU at 340 nm and the sample being clear when manually inspected) | < 100 nM |
